# Assay results from patent US5409953A, “Isolation, structural elucidation and synthesis of novel antineoplastic substances denominated "combretastatins"” (Arizona Board of Regents acting on behalf of Arizona State …, priority 1992, dated 1995).
# Entries after “also recorded” stand apart in the source; their conditions may differ. Like-named read-outs stand apart in the source and are kept apart here.
# Tests used:
# [1] = system: murine P388 lymphocytic leukemia (PS system); test: inhibition of PS cell line growth (Ed50); format: cell-based; conditions: for IC50: Mus musculus
# tubulin [2] = test: binding of [3H]colchicine to tubulin; conditions: Experiment II; for colchicine binding, % of control: 5 μM [3H]colchicine, competing drug at 5 μM, 10 minutes at 37° C.
# Experimental: (§1) Incubation was for 10 minutes at 37° C.
# [3] = system: murine P388 lymphocytic leukemia (PS system); test: PS in vivo life extension; conditions: 2.75-11 mg/kg dose levels
# tubulin [4] = test: in vitro interactions with tubulin (overall comparison); format: biochemical
# Experimental: (§2) The assembly reaction at 37° C. was followed turbidimetrically as described by Hamel et al, Biochem. Pharmacal., 32, p.
# as §1
# tubulin [5] = test: microtubule assembly (turbidimetric); format: biochemical; conditions: for IC50: Experiment I; for inhibition of microtubule assembly / tubulin polymerization in words: comparison with reference agents
# Experimental: as §2
# tubulin [6] = conditions: cited from earlier work
# NCI astrocytoma = NCI astrocytoma bioassay; format: cell-based
# [7] = read-out: concentration giving equivalent inhibition of microtubule assembly
# [8] = read-out: ID50, drug concentration inhibiting the extent of microtubule assembly by 50%, 37° C., 1.5 mg/ml tubulin, 0.5 mg/ml microtubule-associated proteins
smiles,measurement,setting,value
"COc1cc(CCc2ccc(OC)c(O)c2)cc(OC)c1 [3'-hydroxy-3,4',5-trimethoxy bibenzyl]",IC50,[1]; P388 (PS) cell line,1.7 µg/mL
"COc1cc(CCc2ccc(O)cc2)cc(OC)c1OC [4'-hydroxy-3,4,5-trimethoxy bibenzyl]",IC50,[1]; P388 (PS) cell line,0.25 µg/mL
"COc1cc(/C=C\c2ccc(OC)c(OC(C)=O)c2OC(C)=O)cc(OC)c1OC [Combretastatin A-1 d lacerate, 2', 3'-diacetoxy-4'-methoxy-Z-combretastatin A-1]",IC50,[1]; P388 (PS) cell line,2.7 µg/mL
same,activity relative to parent natural product combretastatin A-1,[1]; PS cell line,three-fold less active
COc1ccc(/C=C\c2cc(OC)c(OC)c(OC)c2)c(O)c1O [Combretastatin A-1],inhibition of binding of (3H)colchicine to tubulin in words,tubulin [2],particularly potent
same,"colchicine binding, % of control",tubulin [2],2.2 % of control
same,IC50,[1]; P388 (PS) cell line,0.99 µg/mL
same,increase in life extension,[3],26-29%
same,interactions with tubulin in words,tubulin [4],more active than combretastatin B-1; also recorded: significantly more potent than the previously described combretastatin
same,IC50,tubulin [5]; [7],2000 nM
same,inhibition of microtubule assembly / tubulin polymerization in words,tubulin [5],more potent than combretastatin and the well known tubulin inhibitors colchicine and podophylotoxin
same,inhibition of microtubule assembly / tubulin polymerization in words,tubulin [5]; listed as combretastatins A-1,comparable to that observed with podophyllotoxin and greater than that observed with colchicine and steganacin
same,concentration completely inhibiting microtubulin assembly in vitro,tubulin [5]; complete inhibition,less than 1.5 μmolar
COc1ccc(/C=C\c2cc(OC)c3c(c2)OCO3)cc1O [Combretastatin A-2],IC50,[1]; P388 (PS) cell line,0.027 µg/mL
COc1ccc(/C=C\c2cc(O)c(OC)c(OC)c2)cc1O [Combretastatin A-3],IC50,[1]; P388 (PS) cell line,0.026 µg/mL
COc1ccc(CCc2cc(OC)c(OC)c(OC)c2)c(O)c1O [Combretastatin B-1],inhibition of binding of (3H)colchicine to tubulin in words,tubulin [2],particularly potent
same,"colchicine binding, % of control",tubulin [2],13 % of control
same,IC50,[1]; P388 (PS) cell line,1.7 µg/mL
same,interactions with tubulin in words,tubulin [4],significantly more potent than the previously described combretastatin
same,IC50,tubulin [5]; [7],3000 nM
same,inhibition of microtubule assembly / tubulin polymerization in words,tubulin [5],comparable to that observed with podophyllotoxin and greater than that observed with colchicine and steganacin
COc1ccc(CCc2cc(O)c(OC)c(OC)c2)cc1O [Combretastatin B-2],IC50,[1]; P388 (PS) cell line,0.32 µg/mL
COc1cc(CCc2ccc(O)c(O)c2)cc(OC)c1OC [Combretastatin B-3],IC50,[1]; P388 (PS) cell line,0.4 µg/mL
COc1cc(CCc2ccc(O)c(O)c2)cc(OC)c1 [Combretastatin B-4],IC50,[1]; P388 (PS) cell line,1.7 µg/mL
"COc1ccc(C[C@@H](O)c2cc(OC)c(OC)c(OC)c2)cc1O [Combretastatin, R(-)-1-(3,4,5-tri-methoxyphenyl)-2-(3'-hydroxy, 4'-methoxyphenyl)-ethanol]","colchicine binding, % of control",tubulin [2],34 % of control
same,IC50,tubulin [5]; [7],11000 nM
same,mode of inhibition of binding of radiolabeled colchicine,tubulin [6],competitive inhibitors
same,astrocyte reversal,NCI astrocytoma,pronounced astrocyte reversal
"COc1cc([C@@H]2c3cc4c(cc3[C@H](O)[C@H]3COC(=O)[C@H]23)OCO4)cc(OC)c1OC [Podophyllotoxin, reference compound]","colchicine binding, % of control",tubulin [2],13 % of control
same,mode of inhibition of binding of radiolabeled colchicine,tubulin [6],competitive inhibitors
"COc1cc2c(c(OC)c1OC)-c1cc3c(cc1C(OC(C)=O)[C@H]1COC(=O)[C@@H]1C2)OCO3 (stereo partly drawn) [Steganacin, reference compound]","colchicine binding, % of control",tubulin [2],49 % of control
same,IC50,tubulin [5]; [8],6000 nM
same,mode of inhibition of binding of radiolabeled colchicine,tubulin [6],competitive inhibitors
"COc1cc(/C=C/c2ccc(OC)c(OC(C)=O)c2OC(C)=O)cc(OC)c1OC [trans-isomer counter part, 2',3'-diacetoxy-4'-methoxy-E-combretastatin A-1]",IC50,[1]; P388 (PS) cell line,12 µg/mL
same,PS cell line activity in words,[1]; P388 (PS) cell line,essentially inactive
